Source: patent US20250092039A1, “GLUTARIMIDE-CONTAINING PAN-KRAS-MUTANT DEGRADER COMPOUNDS AND USES THEREOF” (Tiger Biotherapeutics Inc., priority 2022, published 2025)
Read-outs that look alike come from different tables or passages of the source.

Assays:
SW620 cells = experiment: 3D cell growth inhibition of SW620 cells carrying endogenous KRAS G12V mutation (CellTiter-Glo 3D, GI50); format: cell-based; settings: Homo sapiens, SW-620, 144 h, read-out: SW620 3D cell growth GI50
How it was run: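 SW620 cells (endogenous KRAS G12V) grown in 3D were dosed next day with compound from DMSO stocks at various concentrations, then incubated 6 days at 37° C.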

KRAS-G12V/RAF1 = KRAS-G12V/RAF1 (Homo sapiens (Human), UniProt P01116, G12V); experiment: KRAS/RAF1 binding inhibition assay (AlphaScreen)
Chain of KRAS-G12V/RAF1 (P01116-2 other isoform, or with tags, fused parts or gaps G12V): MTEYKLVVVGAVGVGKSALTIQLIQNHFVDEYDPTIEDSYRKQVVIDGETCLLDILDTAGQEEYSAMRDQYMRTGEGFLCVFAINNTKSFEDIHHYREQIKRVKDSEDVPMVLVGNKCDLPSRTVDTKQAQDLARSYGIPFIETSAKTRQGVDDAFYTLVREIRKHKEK
How it was run: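 Binding of GppNHp-loaded KRAS G12V to the RAF1 RBD was measured by AlphaScreen with test compound present in 2% DMSO (final), 60 min incubation at 4° C. Signals were converted to % inhibition versus DMSO, and IC50 was obtained by variable-slope nonlinear regression.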

KRAS G12V = KRAS G12V (Homo sapiens (Human), UniProt P01116, G12V); experiment: KRAS G12V degradation in SW620 cells (Western blot, DC50); format: cell-based; settings: 24 hours
Chain of KRAS G12V (P01116-2 other isoform, or with tags, fused parts or gaps G12V): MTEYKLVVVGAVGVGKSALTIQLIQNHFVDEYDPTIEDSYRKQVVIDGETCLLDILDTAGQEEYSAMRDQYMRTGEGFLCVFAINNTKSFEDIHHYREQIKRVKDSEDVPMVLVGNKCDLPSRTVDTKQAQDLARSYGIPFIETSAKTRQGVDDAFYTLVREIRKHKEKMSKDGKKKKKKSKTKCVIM
How it was run: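 SW620 cells (homozygous KRAS G12V) were treated with compound for 24 hours at 37° C. KRAS in lysates was measured by Western blot with fluorescent secondary antibodies and expressed relative to DMSO vehicle (100%). DC50 came from a four-parameter variable-slope dose-response fit.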

[1] = Pharmacokinetics following single intravenous and oral gavage dosing (AUC0-24h); format: in vivo; settings: mouse, plasma, male CD-1 mice
Protocol: Compounds disclosed herein were studied for animal tolerability and pharmacokinetics following single intravenous (iv) and oral gavage (po) dosing to male CD-1 mice. For each compound in each dosing route, 3 mice were used with iv dosing volume of 5 mL/kg and po dosing volume of 10 mL/kg. The compounds were formulated in 10% DMSO, 30% PEG400, 60% aqueous solution containing 20% 2-hydroxypropyl-β-cyclodextrin. Blood sampling time points for iv dosing were 0.083, 0.25, 0.5, 1, 2, 4, 8 and 24 h. The sampling time points for po dosing were 0.25, 0.5, 1, 2, 4, 6, 8 and 24 h. Mice activities were monitored and recorded immediately following the dosing. The prepared plasma samples were analyzed using LC/MS/MS on AB Sciex Triple Quad 5500+ system. The PK parameters were determined by non-compartmental analysis using WinNonlin (Version 8.0).

| Structure (SMILES) | GI50 (SW620 cells; SW620 cells, 6 days) | IC50 (KRAS-G12V/RAF1) | DC50 (KRAS G12V) | AUC(0-t) ([1]; single oral dose 30 mg/Kg) | AUC(0-t) ([1]; single oral dose 15 mg/Kg) | AUC(0-t) ([1]; single oral dose 25 mg/Kg) | GI50 (SW620 cells) |
| --- | --- | --- | --- | --- | --- | --- | --- |
| CCc1c(F)ccc2cc(O)cc(-c3ncc4c(N5CCC[C@@](C)(O)C5)nc(OCC5(CN6CCC(C)(CN7CCN(C8CCN(c9ccc%10c(c9)CN(C9CCC(=O)NC9=O)C%10=O)CC8)CC7)CC6)CC5)nc4c3F)c12 (stereo partly drawn) [Compound 39, 3-(5-(4-(4-((1-((1-(((7-(8-ethyl-7-fluoro-3-hydroxynaphthalen-1-yl)-8-fluoro-4-((R)-3-hydroxy-3-methylpiperidin-1-yl)pyrido[4,3-d]pyrimidin-2-yl)oxy)methyl)cyclopropyl)methyl)-4-methylpiperidin-4-yl)methyl)piperazin-1-yl)piperidin-1-yl)-1-oxoisoindolin-2-yl)piperidine-2.6-dione] | < 10 nM | < 20 nM | < 1 nM | 399 ng·h/mL |  |  |  |
| CCc1c(F)ccc2cc(O)cc(-c3ncc4c(N5CCC[C@]6(CCO6)C5)nc(OCC5(CN6CCC(C)(CN7CCN(c8ccc9c(c8)CN([C@H]8CCC(=O)NC8=O)C9=O)CC7)CC6)CC5)nc4c3F)c12 [Compound 217, (S)-3-(5-(4-((1-((1-(((7-(8-ethyl-7-fluoro-3-hydroxynaphthalen-1-yl)-8-fluoro-4-((S)-1-oxa-6-azaspiro[3.5]nonan-6-yl)pyrido[4,3-d]pyrimidin-2-yl)oxy)methyl)cyclopropyl)methyl)-4-methylpiperidin-4-yl)methyl)piperazin-1-yl)-1-oxoisoindolin-2-yl)piperidine-2,6-dione] | < 10 nM | 20 to 200 nM | < 1 nM |  | 977 ng·h/mL |  |  |
| CCc1c(F)ccc2cc(O)cc(-c3ncc4c(N5CCC[C@@](C)(O)C5)nc(OCC5(CN6CCC(CN7CCN(c8ccc9c(c8)CN([C@H]8CCC(=O)NC8=O)C9=O)CC7)(OC)CC6)CC5)nc4c3F)c12 [Compound 25, (S)-3-(5-(4-((1-((1-(((7-(8-ethyl-7-fluoro-3-hydroxynaphthalen-1-yl)-8-fluoro-4-((R)-3-hydroxy-3-methylpiperidin-1-yl)pyrido[4,3-d]pyrimidin-2-yl)oxy)methyl)cyclopropyl)methyl)-4-methoxypiperidin-4-yl)methyl)piperazin-1-yl)-1-oxoisoindolin-2-yl)piperidine-2,6-dione] | < 10 nM | < 20 nM | < 1 nM |  |  | 525 ng·h/mL |  |
| CCc1c(F)ccc2cc(O)cc(-c3ncc4c(N5CCC[C@@](C)(O)C5)nc(OCC5(CN6CCC7(CC6)CC(CN6CCN(c8cc(F)c(C9CCC(=O)NC9=O)c(F)c8)CC6)C7)CC5)nc4c3F)c12 (stereo partly drawn) [Compound 49, 3-(4-(4-((7-((1-(((7-(8-ethyl-7-fluoro-3-hydroxynaphthalen-1-yl)-8-fluoro-4-((R)-3-hydroxy-3-methylpiperidin-1-yl)pyrido[4,3-d]pyrimidin-2-yl)oxy)methyl)cyclopropyl)methyl)-7-azaspiro[3.5]nonan-2-yl)methyl)piperazin-1-yl)-2,6-difluorophenyl)piperidine-2,6-dione] | < 10 nM | 20 to 200 nM | < 1 nM | 3170 ng·h/mL |  |  |  |
| CCc1c(F)ccc2cc(O)cc(-c3ncc4c(N5CCC[C@@](C)(O)C5)nc(OCC5(CN6CCC(F)(CN7CCN(c8cccc9c8n(C)c(=O)n9C8CCC(=O)NC8=O)CC7)CC6)CC5)nc4c3F)c12 (stereo partly drawn) [Compound 65, 3-(4-(4-((1-((1-(((7-(8-ethyl-7-fluoro-3-hydroxynaphthalen-1-yl)-8-fluoro-4-((R)-3-hydroxy-3-methylpiperidin-1-yl)pyrido[4,3-d]pyrimidin-2-yl)oxy)methyl)cyclopropyl)methyl)-4-fluoropiperidin-4-yl)methyl)piperazin-1-yl)-3-methyl-2-oxo-2,3-dihydro-1H-benzo[d]imidazol-1-yl)piperidine-2,6-dione] |  |  |  | 10700 ng·h/mL |  |  |  |
| CCc1c(F)ccc2cc(O)cc(-c3ncc4c(N5CCC[C@@](C)(O)C5)nc(OCC5(CN6CCC(F)(CN7CCN(c8ccc9c(C%10CCC(=O)NC%10=O)nn(C)c9c8)CC7)CC6)CC5)nc4c3F)c12 (stereo partly drawn) [Compound 66, 3-(6-(4-((1-((1-(((7-(8-ethyl-7-fluoro-3-hydroxynaphthalen-1-yl)-8-fluoro-4-((R)-3-hydroxy-3-methylpiperidin-1-yl)pyrido[4,3-d]pyrimidin-2-yl)oxy)methyl)cyclopropyl)methyl)-4-fluoropiperidin-4-yl)methyl)piperazin-1-yl)-1-methyl-1H-indazol-3-yl)piperidine-2,6-dione] |  |  |  | 7420 ng·h/mL |  |  |  |
| CCc1c(F)ccc2cc(O)cc(-c3ncc4c(N5CCC[C@@](C)(O)C5)nc(OCC5(CN6CCC(F)(CN7CCN(c8ccc(C9CCC(=O)NC9=O)c(F)c8)CC7)CC6)CC5)nc4c3F)c12 (stereo partly drawn) [Compound 84, 3-(4-(4-((1-((1-(((7-(8-ethyl-7-fluoro-3-hydroxynaphthalen-1-yl)-8-fluoro-4-((R)-3-hydroxy-3-methylpiperidin-1-yl)pyrido[4,3-d]pyrimidin-2-yl)oxy)methyl)cyclopropyl)methyl)-4-fluoropiperidin-4-yl)methyl)piperazin-1-yl)-2-fluorophenyl)piperidine-2,6-dione] |  |  |  | 11900 ng·h/mL |  |  |  |
| CCc1c(F)ccc2cc(O)cc(-c3ncc4c(N5CCCC6(CCO6)C5)nc(OCC5(CN6CCC(CN7CCN(c8ccc9c(c8)CN([C@H]8CCC(=O)NC8=O)C9=O)CC7)CC6)CC5)nc4c3F)c12 (stereo partly drawn) [Compound 23, (3S)-3-(5-(4-((1-((1-(((7-(8-ethyl-7-fluoro-3-hydroxynaphthalen-1-yl)-8-fluoro-4-(1-oxa-6-azaspiro[3.5]nonan-6-yl)pyrido[4,3-d]pyrimidin-2-yl)oxy)methyl)cyclopropyl)methyl)piperidin-4-yl)methyl)piperazin-1-yl)-1-oxoisoindolin-2-yl)piperidine-2,6-dione] | < 10 nM | 20 to 200 nM |  | 783 ng·h/mL |  |  |  |
| CCc1c(F)ccc2cc(O)cc(-c3ncc4c(N5CCC[C@@](C)(O)C5)nc(OCC5(CN6CCC7(CC6)CC(F)(CN6CCN(c8cc(F)c(C9CCC(=O)NC9=O)c(F)c8)CC6)C7)CC5)nc4c3F)c12 (stereo partly drawn) [Compound 46, 3-(4-(4-((7-((1-(((7-(8-ethyl-7-fluoro-3-hydroxynaphthalen-1-yl)-8-fluoro-4-((R)-3-hydroxy-3-methylpiperidin-1-yl)pyrido[4,3-d]pyrimidin-2-yl)oxy)methyl)cyclopropyl)methyl)-2-fluoro-7-azaspiro[3.5]nonan-2-yl)methyl)piperazin-1-yl)-2,6-difluorophenyl)piperidine-2,6-dione] | < 10 nM |  | 1 to 10 nM | 9130 ng·h/mL |  |  |  |
| CCc1c(F)ccc2cc(O)cc(-c3ncc4c(N5CCCC6(CCO6)C5)nc(OCC5(CN6CCC(CN7CCC(N8CCN(c9ccc%10c(c9)CN([C@H]9CCC(=O)NC9=O)C%10=O)CC8)CC7)CC6)CC5)nc4c3F)c12 (stereo partly drawn) [Compound 38, (3S)-3-(5-(4-(1-((1-((1-(((7-(8-ethyl-7-fluoro-3-hydroxynaphthalen-1-yl)-8-fluoro-4-(1-oxa-6-azaspiro[3.5]nonan-6-yl)pyrido[4,3-d]pyrimidin-2-yl)oxy)methyl)cyclopropyl)methyl)piperidin-4-yl)methyl)piperidin-4-yl)piperazin-1-yl)-1-oxoisoindolin-2-yl)piperidine-2,6-dione] | < 10 nM |  | 1 to 10 nM | 170 ng·h/mL |  |  |  |
| CCc1c(F)ccc2cc(O)cc(-c3ncc4c(N5CCC[C@@](C)(O)C5)nc(OCC5(CN6CCC(CN7CCN(c8ccc9c(c8)CN([C@H]8CCC(=O)NC8=O)C9=O)CC7)CC6)CC5)nc4c3F)c12 [Compound 1, (S)-3-(5-(4-((1-((1-(((7-(8-ethyl-7-fluoro-3-hydroxynaphthalen-1-yl)-8-fluoro-4-((R)-3-hydroxy-3-methylpiperidin-1-yl)pyrido[4,3-d]pyrimidin-2-yl)oxy)methyl)cyclopropyl)methyl)piperidin-4-yl)methyl)piperazin-1-yl)-1-oxoisoindolin-2-yl)piperidine-2,6-dione] |  |  |  | 220 ng·h/mL |  |  |  |
| CCc1c(F)ccc2cc(O)cc(-c3ncc4c(N5CCC[C@@](C)(O)C5)nc(OCC5(CN6CCC7(CC6)CN(CC6CCN(c8ccc9c(c8)CN(C8CCC(=O)NC8=O)C9=O)CC6)C7)CC5)nc4c3F)c12 (stereo partly drawn) [Compound 131, 3-(5-(4-((7-((1-(((7-(8-ethyl-7-fluoro-3-hydroxynaphthalen-1-yl)-8-fluoro-4-((R)-3-hydroxy-3-methylpiperidin-1-yl)pyrido[4,3-d]pyrimidin-2-yl)oxy)methyl)cyclopropyl)methyl)-2,7-diazaspiro[3.5]nonan-2-yl)methyl)piperidin-1-yl)-1-oxoisoindolin-2-yl)piperidine-2,6-dione] |  | < 20 nM | < 1 nM |  |  |  | < 10 nM |
